Assays:
[1] = target: human MOR (Homo sapiens (Human), UniProt P35372)
[2] = test system: mice; conditions: mouse, in vivo

## COc1ccsc1CNCC[C@@]1(c2ccccn2)CCOC2(CCCC2)C1 [TRV-130]
[1]
  G/βarr2 bias factor: 3.0

## CN1CC[C@]23c4c5ccc(O)c4O[C@H]2[C@@H](O)C=C[C@H]3[C@H]1C5 [morphine]
[2]
  constipation following acute administration: induced constipation
